Laboratory results published in the OligoGym collection.
Values joined by “and” are separate entries in the source; they are usually repeats but may differ in a detail not shown here. Equal values may be shown once. HELM strings list units from the 5' end as sugar, base in round brackets, then linkage (d deoxyribose, r ribose, m 2'-O-methyl, p phosphodiester). Strings are as the collection lists them, not checked against the first reports. ss, as = sense and antisense strand; [lna] = locked nucleic acid (LNA); [una] = unlocked nucleic acid; [fl2r] = 2'-fluoro

Conditions: siRNA
Note: test system not given here.

Substance	target mRNA knockdown
RNA1{r(U)p.r(C)p.r(C)p.m(U)p.r(A)p.r(G)p.r(C)p.m(U)p.r(G)p.r(U)p.r(C)p.r(U)p.m(U)p.r(G)p.r(U)p.r(C)p.r(C)p.r(C)p.r(U)p.r(T)p.r(T)}|RNA2{r(A)p.r(G)p.r(G)p.r(G)p.r(A)p.m(C)p.r(A)p.r(A)p.r(G)p.r(A)p.m(C)p.r(A)p.r(G)p.r(C)p.m(U)p.r(A)p.r(G)p.r(G)p.r(A)p.r(T)p.r(T)}$$$RNA1{StrandType:ss}|RNA2{StrandType:as}$	68%
RNA1{r(U)p.r(C)p.r(C)p.m(U)p.r(A)p.r(G)p.r(C)p.r(U)p.r(G)p.r(U)p.r(C)p.r(U)p.r(U)p.r(G)p.r(U)p.r(C)p.r(C)p.r(C)p.r(U)p.r(T)p.r(T)}|RNA2{r(A)p.r(G)p.r(G)p.r(G)p.r(A)p.r(C)p.r(A)p.r(A)p.r(G)p.r(A)p.r(C)p.r(A)p.r(G)p.r(C)p.m(U)p.r(A)p.r(G)p.r(G)p.r(A)p.r(T)p.r(T)}$$$RNA1{StrandType:ss}|RNA2{StrandType:as}$	71%
RNA1{r(U)p.r(C)p.r(C)p.r(A)p.r(A)p.r(G)p.r(C)p.r(U)p.r(U)p.r(C)p.r(C)p.r(U)p.r(C)p.r(G)p.r(U)p.r(U)p.r(G)p.r(G)p.r(U)p.r(T)p.r(T)}|RNA2{r(A)p.r(C)p.[fl2r](C)p.r(A)p.r(A)p.r(C)p.r(G)p.r(A)p.r(G)p.r(G)p.r(A)p.r(A)p.r(G)p.r(C)p.r(U)p.[fl2r](U)p.r(G)p.r(G)p.r(A)p.r(T)p.r(T)}$$$RNA1{StrandType:ss}|RNA2{StrandType:as}$	71%
RNA1{r(U)p.r(C)p.r(C)p.r(C)p.r(U)p.r(U)p.r(C)p.m(C)p.r(A)p.r(C)p.r(C)p.r(G)p.r(C)p.m(C)p.r(A)p.m(U)p.r(A)p.r(U)p.r(U)p.r(T)p.r(T)}|RNA2{r(A)p.r(A)p.m(U)p.r(A)p.m(U)p.r(G)p.r(G)p.r(C)p.r(G)p.r(G)p.m(U)p.r(G)p.r(G)p.r(A)p.r(A)p.r(G)p.r(G)p.r(G)p.r(A)p.r(T)p.r(T)}$$$RNA1{StrandType:ss}|RNA2{StrandType:as}$	47%
RNA1{r(U)p.r(C)p.r(C)p.r(C)p.r(U)p.r(U)p.r(C)p.r(C)p.r(A)p.r(C)p.r(C)p.r(G)p.r(C)p.r(C)p.r(A)p.m(U)p.r(A)p.r(U)p.r(U)p.r(T)p.r(T)}|RNA2{r(A)p.r(A)p.m(U)p.r(A)p.r(U)p.r(G)p.r(G)p.r(C)p.r(G)p.r(G)p.r(U)p.r(G)p.r(G)p.r(A)p.r(A)p.r(G)p.r(G)p.r(G)p.r(A)p.r(T)p.r(T)}$$$RNA1{StrandType:ss}|RNA2{StrandType:as}$	49%
RNA1{r(U)p.r(C)p.r(C)p.r(G)p.r(G)p.r(C)p.[fl2r](U)p.r(A)p.r(A)p.r(C)p.r(U)p.r(C)p.[fl2r](U)p.r(G)p.r(A)p.r(G)p.r(G)p.r(A)p.r(C)p.r(T)p.r(T)}|RNA2{r(G)p.r(U)p.r(C)p.r(C)p.r(U)p.[fl2r](C)p.r(A)p.r(G)p.r(A)p.r(G)p.r(U)p.r(U)p.r(A)p.r(G)p.r(C)p.r(C)p.[fl2r](G)p.r(G)p.r(A)p.r(T)p.r(T)}$$$RNA1{StrandType:ss}|RNA2{StrandType:as}$	85%
RNA1{r(U)p.r(C)p.r(C)p.r(G)p.r(G)p.r(C)p.[fl2r](U)p.r(A)p.r(A)p.r(C)p.r(U)p.r(C)p.r(U)p.r(G)p.r(A)p.r(G)p.r(G)p.r(A)p.r(C)p.r(T)p.r(T)}|RNA2{r(G)p.r(U)p.r(C)p.r(C)p.r(U)p.r(C)p.r(A)p.r(G)p.r(A)p.r(G)p.r(U)p.[fl2r](U)p.r(A)p.r(G)p.r(C)p.r(C)p.r(G)p.r(G)p.r(A)p.r(T)p.r(T)}$$$RNA1{StrandType:ss}|RNA2{StrandType:as}$	82%
RNA1{r(U)p.r(C)p.r(C)p.r(U)p.r(A)p.r(C)p.r(A)p.r(G)p.r(C)p.r(A)p.r(C)p.r(A)p.r(A)p.r(C)p.r(A)p.r(A)p.r(A)p.r(U)p.r(G)p.d(U)p.d(G)}|RNA2{r(C)p.r(A)p.r(U)p.r(U)p.r(U)p.r(G)p.r(U)p.r(U)p.r(G)p.r(U)p.r(G)p.r(C)p.r(U)p.r(G)p.r(U)p.r(A)p.r(G)p.r(G)p.r(A)p.d(A)p.d(G)}$$$RNA1{StrandType:ss}|RNA2{StrandType:as}$	25% and 0%
RNA1{r(U)p.r(C)p.r(C)p.r(U)p.r(A)p.r(C)p.r(A)p.r(G)p.r(C)p.r(A)p.r(C)p.r(A)p.r(A)p.r(C)p.r(A)p.r(A)p.r(A)p.r(U)p.r(G)p.d(U)p.d(G)}|RNA2{r(C)p.r(A)p.r(U)p.r(U)p.r(U)p.r(G)p.r(U)p.r(U)p.r(G)p.r(U)p.r(G)p.r(C)p.r(U)p.r(G)p.r(U)p.r(A)p.r(G)p.r(G)p.r(A)p.d(T)p.d(T)}$$$RNA1{StrandType:ss}|RNA2{StrandType:as}$	54%
RNA1{r(U)p.r(C)p.r(C)p.r(U)p.r(C)p.r(G)p.r(U)p.m(C)p.r(G)p.r(U)p.r(C)p.m(U)p.r(G)p.r(U)p.r(U)p.r(C)p.m(U)p.r(A)p.r(A)p.r(T)p.r(T)}|RNA2{r(U)p.m(U)p.r(A)p.r(G)p.r(A)p.r(A)p.m(C)p.r(A)p.r(G)p.r(A)p.r(C)p.r(G)p.r(A)p.r(C)p.r(G)p.r(A)p.r(G)p.r(G)p.r(A)p.r(T)p.r(T)}$$$RNA1{StrandType:ss}|RNA2{StrandType:as}$	82%
RNA1{r(U)p.r(C)p.r(C)p.r(U)p.r(C)p.r(G)p.r(U)p.r(C)p.[fl2r](G)p.r(U)p.r(C)p.[fl2r](U)p.[fl2r](G)p.r(U)p.r(U)p.r(C)p.[fl2r](U)p.r(A)p.r(A)p.r(T)p.r(T)}|RNA2{r(U)p.[fl2r](U)p.r(A)p.r(G)p.r(A)p.r(A)p.[fl2r](C)p.r(A)p.r(G)p.r(A)p.r(C)p.r(G)p.r(A)p.r(C)p.r(G)p.r(A)p.r(G)p.r(G)p.r(A)p.r(T)p.r(T)}$$$RNA1{StrandType:ss}|RNA2{StrandType:as}$	77%
RNA1{r(U)p.r(C)p.r(C)p.r(U)p.r(C)p.r(G)p.r(U)p.r(C)p.r(G)p.r(U)p.r(C)p.r(U)p.r(G)p.r(U)p.r(U)p.r(C)p.[fl2r](U)p.r(A)p.r(A)p.r(T)p.r(T)}|RNA2{r(U)p.[fl2r](U)p.r(A)p.r(G)p.r(A)p.r(A)p.[fl2r](C)p.r(A)p.r(G)p.r(A)p.r(C)p.r(G)p.r(A)p.r(C)p.r(G)p.r(A)p.r(G)p.r(G)p.r(A)p.r(T)p.r(T)}$$$RNA1{StrandType:ss}|RNA2{StrandType:as}$	74%
RNA1{r(U)p.r(C)p.r(C)p.r(U)p.r(C)p.r(G)p.r(U)p.r(C)p.r(G)p.r(U)p.r(C)p.r(U)p.r(G)p.r(U)p.r(U)p.r(C)p.m(U)p.r(A)p.r(A)p.r(T)p.r(T)}|RNA2{r(U)p.m(U)p.r(A)p.r(G)p.r(A)p.r(A)p.r(C)p.r(A)p.r(G)p.r(A)p.r(C)p.r(G)p.r(A)p.r(C)p.r(G)p.r(A)p.r(G)p.r(G)p.r(A)p.r(T)p.r(T)}$$$RNA1{StrandType:ss}|RNA2{StrandType:as}$	84%
RNA1{r(U)p.r(C)p.r(G)p.r(G)p.r(G)p.r(A)p.r(A)p.r(A)p.r(U)p.r(U)p.r(U)p.r(C)p.r(U)p.r(C)p.r(U)p.r(A)p.r(U)p.r(U)p.r(A)p.d(T)p.d(T)}|RNA2{r(U)p.r(A)p.r(A)p.r(U)p.r(A)p.r(G)p.r(A)p.r(G)p.r(A)p.r(A)p.r(A)p.r(U)p.r(U)p.r(U)p.r(C)p.r(C)p.r(C)p.r(G)p.r(A)p.d(T)p.d(T)}$$$RNA1{StrandType:ss}|RNA2{StrandType:as}$	94% and 80%
RNA1{r(U)p.r(C)p.r(U)p.r(C)p.r(G)p.m(U)p.m(A)p.r(A)p.r(G)p.r(G)p.r(A)p.r(C)p.r(G)p.r(A)p.m(A)p.r(A)p.m(C)p.r(G)p.r(A)p.r(T)p.r(T)}|RNA2{r(U)p.r(C)p.r(G)p.r(U)p.r(U)p.r(U)p.r(C)p.r(G)p.r(U)p.r(C)p.r(C)p.r(U)p.m(U)p.r(A)p.r(C)p.r(G)p.r(A)p.r(G)p.r(A)p.r(T)p.r(T)}$$$RNA1{StrandType:ss}|RNA2{StrandType:as}$	52%
RNA1{r(U)p.r(C)p.r(U)p.r(C)p.r(G)p.r(U)p.r(A)p.r(A)p.r(G)p.r(G)p.r(A)p.r(C)p.r(G)p.r(A)p.r(A)p.r(A)p.r(C)p.r(G)p.r(A)p.r(T)p.r(T)}|RNA2{r(U)p.r(C)p.r(G)p.r(U)p.r(U)p.r(U)p.r(C)p.r(G)p.r(U)p.r(C)p.r(C)p.r(U)p.m(U)p.r(A)p.r(C)p.r(G)p.r(A)p.r(G)p.r(A)p.r(T)p.r(T)}$$$RNA1{StrandType:ss}|RNA2{StrandType:as}$	55%
RNA1{r(U)p.r(G)p.r(A)p.r(A)p.r(C)p.r(G)p.r(U)p.m(C)p.r(A)p.r(C)p.r(C)p.r(G)p.r(A)p.r(G)p.r(G)p.r(A)p.r(G)p.r(A)p.r(A)p.r(T)p.r(T)}|RNA2{r(U)p.r(U)p.r(C)p.r(U)p.r(C)p.r(C)p.r(U)p.r(C)p.r(G)p.r(G)p.r(U)p.r(G)p.r(A)p.r(C)p.r(G)p.r(U)p.r(U)p.m(C)p.r(A)p.r(T)p.r(T)}$$$RNA1{StrandType:ss}|RNA2{StrandType:as}$	85%
RNA1{r(U)p.r(G)p.r(A)p.r(A)p.r(U)p.r(C)p.r(A)p.r(G)p.r(A)p.r(A)p.r(G)p.r(A)p.r(U)p.r(G)p.r(A)p.r(A)p.r(G)p.r(U)p.r(C)p.r(A)p.r(A)}|RNA2{[una](G)p.r(A)p.r(C)p.r(U)p.r(U)p.r(C)p.r(A)p.r(U)p.r(C)p.r(U)p.r(U)p.r(C)p.r(U)p.r(G)p.r(A)p.r(U)p.r(U)p.r(C)p.r(A)p.r(A)p.r(G)}$$$RNA1{StrandType:ss}|RNA2{StrandType:as}$	94% and 92%
RNA1{r(U)p.r(G)p.r(A)p.r(G)p.r(A)p.r(G)p.r(A)p.r(A)p.r(A)p.r(G)p.r(C)p.r(A)p.r(C)p.r(A)p.r(G)p.r(A)p.r(A)p.r(A)p.r(A)p.d(T)p.d(T)}|RNA2{[lna](T)p.r(U)p.r(U)p.r(U)p.r(C)p.r(U)p.r(G)p.r(U)p.r(G)p.r(C)p.r(U)p.r(U)p.r(U)p.r(C)p.r(U)p.r(C)p.r(U)p.r(C)p.r(A)p.[lna](T)p.[lna](T)}$$$RNA1{StrandType:ss}|RNA2{StrandType:as}$	34%
RNA1{r(U)p.r(G)p.r(A)p.r(G)p.r(A)p.r(G)p.r(A)p.r(A)p.r(A)p.r(G)p.r(C)p.r(A)p.r(C)p.r(A)p.r(G)p.r(A)p.r(A)p.r(A)p.r(A)p.r(T)p.r(T)}|RNA2{[lna](T)p.r(U)p.r(U)p.r(U)p.r(C)p.r(U)p.r(G)p.r(U)p.r(G)p.r(C)p.r(U)p.r(U)p.r(U)p.r(C)p.r(U)p.r(C)p.r(U)p.r(C)p.r(A)p.[lna](T)p.[lna](T)}$$$RNA1{StrandType:ss}|RNA2{StrandType:as}$	45%
